Where a SMILES comes first, the peptide text is derived from it.
What was measured:
[1] = biological target: T1, Peptidyl-prolyl cis-trans isomerase A (Homo sapiens, UniProt P62937); experiment: Inhibition of PPIase activity of Cyclophilin A by Spectrophotometry
[2] = biological target: T1, Peptidyl-prolyl cis-trans isomerase A; experiment: Binding affinity to Cyclophilin A
Target sequence in this assay (P62937 whole entry): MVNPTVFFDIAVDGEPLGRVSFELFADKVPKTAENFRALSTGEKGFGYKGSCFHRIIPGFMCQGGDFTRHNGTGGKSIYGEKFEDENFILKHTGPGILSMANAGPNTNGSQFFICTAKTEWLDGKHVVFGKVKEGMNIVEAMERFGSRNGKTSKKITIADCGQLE

[3] = test system: Human immunodeficiency virus 1; experiment: Antiviral activity against HIV1 3B infected in human MT2 cells assessed as inhibition of viral replication at 1 mM after 48 hrs by flow cytometry; type: functional; conditions: Human immunodeficiency virus 1, 3B, MT2, 48 h
SK-HEP1 = experiment: Cytotoxicity against human SKHEP1 cells upto 100 uM after 48 hrs by MTT assay; type: cell-based; conditions: sk-hep1, 48 h

inhibition [1] | IC50 ([1]; read-out: IC50) | Kd ([2]; read-out: Kd) | SMILES | IC50 [1] | Kd [2] | inhibition at 1000 µM [3] | Activity (SK-HEP1)
– | – | – | N[C@@H](Cc1ccc(O)cc1)C(=O)NCC(=O)N1CCC[C@H]1C(=O)O (H-Tyr-Gly-Pro-OH) | Not Active | Not Active | – | –
– | – | – | C[C@H](NC(=O)[C@@H](N)Cc1c[nH]c2ccccc12)C(=O)NCC(=O)N1CCC[C@H]1C(=O)O (H-WAGP-OH) | Not Active | Not Active | – | –
Dose-dependent effect | 0.0331 µM | 3.41 µM | N[C@@H](Cc1c[nH]c2ccccc12)C(=O)NCC(=O)N1CCC[C@H]1C(=O)O (H-Trp-Gly-Pro-OH) | – | – | 75.5% | Non-toxic
